# Values quoted from earlier work, collected in patent US10500227B2, “Bioactive gas-encapsulated echogenic liposomes and methods for treating cardiovascular disease” (University of Cincinnati, priority 2014, dated 2019).
structure (smiles),measurement,setting,value
"[N]=O [NO, nitric oxide]",diffusivity,in muscular tissue,"roughly 3,300 μm^2 per second"
same,half-life,in the presence of hemoglobin and oxygen in vivo,< 1 s
